{"source": "patent US20070094743A1", "about": "“ABCG1/ABCG4-related methods and compositions” (priority 2005, published 2007)", "key": {"[1]": {"test_system": "ABCG1 mRNA", "experiment": "ABCG1 mRNA levels normalized against β-actin mRNA, Taqman real-time RT-PCR, in mouse macrophages", "type": "cell-based", "details": "2 μM, data not shown", "method": "(§1) Where indicated, RNA oligonucleotides targeting both sequences were mixed and used to down-regulate ABCG1 or ABCG4 gene expression. The scrambled control RNA oligonucleotides also were obtained from Dharmacon. An independent set of siRNA targeting ABCG1 (5′[…]3′) or ABCG4 (5′[…]3′) was obtained from Qiagen and used where indicated. For cholesterol efflux assays, mouse peritoneal macrophages were plated in 24- or 48-well plates and cultured in 10% fetal bovine serum and DMEM media at 37° C. for 24 hours. Cells were then transfected with siRNA and LipofectAMINE 2000 at the indicated concentration and labeled with isotopic cholesterol (2 μCi/ml [^3H]cholesterol in 1% fetal bovine serum) in the presence or absence of TO901317 (2 μM) for 48 hours. Cells were washed twice and equilibrated for 30 minutes for the third wash, and then HDL or other acceptors were added for the indicated period. Levels of ABCG1 and ABCG4 mRNAs normalized against β-actin mRNA were determined using Taqman real-time quantititative RT-PCR. The primers and probes were from Applied Biosystems."}, "[2]": {"test_system": "ABCG4 mRNA", "experiment": "ABCG4 mRNA levels normalized against β-actin mRNA, Taqman real-time RT-PCR, in mouse macrophages", "type": "cell-based", "details": "2 μM, data not shown", "method": "as §1"}}, "data": [{"smiles": "O=S(=O)(c1ccccc1)N(CC(F)(F)F)c1ccc(C(O)(C(F)(F)F)C(F)(F)F)cc1", "note": "[T0901317]", "values": [{"measurement": "increase of mRNA levels of ABCG1", "setting": "[1]", "value": 3, "unit": "fold"}, {"measurement": "increase of mRNA levels of ABCG4", "setting": "[2]", "value": 2, "unit": "fold"}]}]}
